Reference: US9951079B2, “Fused tricyclic heterocyclic compounds as HIV integrase inhibitors” (MERCK SHARP & DOHME CORP., priority 2013, dated 2018)
pIC50: −log10 of the molar value. Where two headings read alike, the source gives them in different places.

System: HIV-1 (NL4-3 strain)
Experiment: Assay for inhibition of HIV replication (MT4-gag-GFP reporter cell line, kinetic assay)
Type: cell-based
Method: This assay is a kinetic assay that employs a reporter cell line (MT4-gag-GFP) to quantify the number of new cells infected in each round of replication.
MT4-GFP cells (250,000 cells/ml) were bulk-infected with HIV-1 (NL4-3 strain) at low multiplicity of infection (MOI) in RPMI+10% FBS for 24 hours. Cells were then washed once in RPMI+10% FBS and resuspended in RPMI+0% or 10% or 100% normal human serum (NHS). Test compounds were serial-diluted in DMSO on ECHO. The infected MT4-GFP cells were added to a 384-well poly-D-lysine coated black plate with clear bottom in which the diluted test compounds were placed. The cells were seeded at 8,000 cells per well and the final DMSO concentration was 0.4%. The infected cells (Green GFP cells) were quantified at both 24 and 48 hours post incubation using Acumen eX3. Viral reproductive ratio (R0) was determined using the number of infected cells at 48 hours divided by the number of infected cells at 24 hours. Percent viral growth inhibition was calculated by [1−(R−Rtripledrug)/(RDMSO−Rtripledrug)]*100. Compound potency IP or IC50 was determined by a 4-parameter dose response curve analysis.

[1] = Human immunodeficiency virus 1, NL43, Table A, infected MT4-GFP cells, RPMI + 0% normal human serum, IP from 4-parameter dose response curve, read-out: Wild Type Cell Assay IP (0% NHS)
[2] = Human immunodeficiency virus 1, NL43, Table A, infected MT4-GFP cells, RPMI + 10% normal human serum, read-out: Wild Type Cell Assay IP (10% NHS)
[3] = Human immunodeficiency virus 1, NL43, Table B (selected enantiomeric compounds), 0% normal human serum, read-out: Wild Type Cell Assay IP (0% NHS)
[4] = Table A, infected MT4-GFP cells, RPMI + 10% normal human serum, read-out: Wild Type Cell Assay IP (10% NHS)
[5] = Table B (selected enantiomeric compounds), 100% normal human serum, read-out: Wild Type Cell Assay IP (100% NHS)
[6] = Table B (selected enantiomeric compounds), 0% normal human serum, read-out: Wild Type Cell Assay IP (0% NHS)

Row | Structure (SMILES) | pIC50 [1] | pIC50 [2] | also measured
1 | CCN1C(=O)c2c(O)c(=O)c(-c3nnc(Cc4ccc(F)cc4)s3)cn2C2COC[C@@H]21 (mixture of isomers) [Compound 7] | 7.44 | 7.13 | 
2 | COCCN1C(=O)c2c(O)c(=O)c(-c3nnc(Cc4ccc(F)cc4F)s3)cn2C2COC[C@@H]21 (mixture of isomers) [Compound 8] | 8.22 | 7.89 | 
3 | CCCN1C(=O)c2c(O)c(=O)c(-c3nnc(Cc4ccc(F)cc4)s3)cn2C2COC[C@@H]21 (mixture of isomers) [Compound 9] | 8.00 | 7.49 | 
4 | CCC(c1nnc(-c2cn3c(c(O)c2=O)C(=O)N(CC)[C@H]2COCC23)s1)c1ccc(F)cc1F (mixture of isomers) [Compound 6] | 7.51 | 7.17 | 
5 | CC(C)N1C(=O)c2c(O)c(=O)c(C(=O)NCc3ccc(F)cc3F)cn2C2COC[C@@H]21 (mixture of isomers) [Compound 12] | 8.52 | 7.21 | 
6 | O=C1N[C@@H]2COC[C@H]2n2cc(-c3nnc(Cc4ccc(F)cc4F)s3)c(=O)c(O)c21 (relative stereo) [Compound 2, trans-8-(5-(2,4-difluorobenzyl)-1,3,4-thiadiazol-2-yl)-6-hydroxy-3a,4-dihydro-1H-furo[3,4-e]pyrido[1,2-a]pyrazine-5,7(3H,10aH)-dione] |  | 6.41 | 
7 | CCN1C(=O)c2c(O)c(=O)c(-c3nnc(Cc4ccc(F)cc4F)s3)cn2[C@@H]2COC[C@H]21 (relative stereo) [Compound 3, trans-8-(5-(2,4-difluorobenzyl)-1,3,4-thiadiazol-2-yl)-4-ethyl-6-hydroxy-3a,4-dihydro-1H-furo[3,4-e]pyrido[1,2-a]pyrazine-5,7(3H,10aH)-dione] |  | 7.24 | 
8 | CCN1C(=O)c2c(O)c(=O)c(-c3cnn(Cc4ccc(F)cc4F)c3)cn2[C@@H]2COC[C@@H]21 (relative stereo) [Compound 14, cis-8-(1-(2,4-difluorobenzyl)-1H-pyrazol-4-yl)-4-ethyl-6-hydroxy-3a,4-dihydro-1H-furo[3,4-e]pyrido[1,2-a]pyrazine-5,7(3H,10aH)-dione] | 7.29 | 6.60 | 
9 | CCN1C(=O)c2c(O)c(=O)c(-c3nnc(Cc4ccc(F)cc4F)s3)cn2C2COC[C@@H]21 (single isomer, unassigned) [Compound 4, cis-8-(5-(2,4-difluorobenzyl)-1,3,4-thiadiazol-2-yl)-4-ethyl-6-hydroxy-3a,4-dihydro-1H-furo[3,4-e]pyrido[1,2-a]pyrazine-5,7(3H,10aH)-dione] |  |  | pIC50 [3]: 8.10; pIC50 [4]: 7.77; pIC50 [5]: 6.72
10 | CCN1C(=O)c2c(O)c(=O)c(-c3nnc(Cc4ccc(F)cc4F)s3)cn2C2COC[C@@H]21 (single isomer, unassigned) [Compound 5, cis-8-(5-(2,4-difluorobenzyl)-1,3,4-thiadiazol-2-yl)-4-ethyl-6-hydroxy-3a,4-dihydro-1H-furo[3,4-e]pyrido[1,2-a]pyrazine-5,7(3H,10aH)-dione] | 8.05 |  | pIC50 [4]: 6.25; pIC50 [5]: 5.24
11 | CCN1C(=O)c2c(O)c(=O)c(C(=O)NCc3ccc(F)cc3F)cn2C2COC[C@@H]21 (single isomer, unassigned) [Compound 10, cis-N-(2,4-difluorobenzyl)-4-ethyl-6-hydroxy-5,7-dioxo-3,3a,4,5,7,10a-hexahydro-1H-furo[3,4-e]pyrido[1,2-a]pyrazine-8-carboxamide] | 8.40 |  | pIC50 [4]: 8.10; pIC50 [6]: 7.10; pIC50 [5]: 7.15
12 | CCN1C(=O)c2c(O)c(=O)c(C(=O)NCc3ccc(F)cc3F)cn2C2COC[C@@H]21 (single isomer, unassigned) [Compound 11, cis-N-(2,4-difluorobenzyl)-4-ethyl-6-hydroxy-5,7-dioxo-3,3a,4,5,7,10a-hexahydro-1H-furo[3,4-e]pyrido[1,2-a]pyrazine-8-carboxamide] |  |  | pIC50 (Table A, infected MT4-GFP cells, RPMI + 0% normal human serum, IP from 4-parameter dose response curve, read-out: Wild Type Cell Assay IP (0% NHS)): 8.22; pIC50 [4]: 6.83; pIC50 [6]: 7.42; pIC50 [5]: 5.55
13 | CCN1C(=O)c2c(O)c(=O)c(-c3cn(Cc4ccc(F)cc4F)nn3)cn2[C@@H]2COC[C@@H]21 (single isomer, unassigned) [Compound 15, cis-8-(1-(2,4-Difluorobenzyl)-1H-1,2,3-triazol-4-yl)-4-ethyl-6-hydroxy-3a,4-dihydro-1H-furo[3,4-e]pyrido[1,2-a]pyrazine-5,7(3H,10aH)-dione] | 7.10 |  | 
14 | CCN1C(=O)c2c(O)c(=O)c(-c3cn(Cc4ccc(F)cc4F)nn3)cn2C2COC[C@@H]21 (single isomer, unassigned) [Compound 16] | 7.42 |  | pIC50 [3]: 7.42; pIC50 (Human immunodeficiency virus 1, NL43, Table B (selected enantiomeric compounds), 100% normal human serum, read-out: Wild Type Cell Assay IP (100% NHS)): 5.57
15 | O=C1N[C@H]2COCC2n2cc(-c3nnc(Cc4ccc(F)cc4F)s3)c(=O)c(O)c21 (stereo in doubt) [Compound 1, cis-8-(5-(2,4-difluorobenzyl)-1,3,4-thiadiazol-2-yl)-6-hydroxy-3a,4-dihydro-1H-furo[3,4-e]pyrido[1,2-a]pyrazine-5,7(3H,10aH)-dione] |  | 6.40 | 
16 | CCN1C(=O)c2c(O)c(=O)c(C(=O)NCc3ccc(F)cc3F)cn2C2COC[C@H]21 (stereo partly shown) [Compound 13] |  | 7.68 | 
